The source of these data is patent US11985974B2, “Antimicrobial ferulic acid derivatives and uses thereof” (WISCONSIN ALUMNI RESEARCH FOUNDATION, priority 2014, dated 2024).

The first test has as its system yeast cells. The experiment in a line: Cell leakage assay (FungaLight, flow cytometry). In kind it is cell-based, Saccharomyces cerevisiae. Particulars: actively growing cells (YPD), 4 h. On the procedure:
A FungaLight Cell Viability Assay (L34952; Invitrogen) using a Guava Flow Cytometer (Millipore) was used to determine if poacic acid caused membrane damage. The population of stained cells (damaged integrity) vs. nonstained cells can be determined by flow cytometry. Caspofungin (50 ng/mL) was included as a positive control. MMS and DMSO were included as a noncell wall-targeting control and a solvent control, respectively. To test the effects of the compounds on both active and arrested cells, log-phase cultures were washed with 1×PBS and resuspended to an OD0.5 in either YPD medium or YP (no carbon source) in the presence of the drugs (n=3) for 4 h at 30° C. The cells were then stained and immediately read by flow cytometry. One-way ANOVA and Tukey's test were used to calculate the difference between drug treatments among cells with arrested growth.
For orientation: Flow cytometry measures light scatter and fluorescence of single cells or particles in a stream.
On to `COS(C)(=O)=O` [MMS, methyl methanesulfonate], for which the “cell leakage (propidium iodide uptake)” value is listed as “did not”.

On to `CC[C@H](C)C[C@H](C)CCCCCCCCC(=O)N[C@H]1C[C@@H](O)[C@@H](NCCN)NC(=O)[C@@H]2[C@@H](O)CCN2C(=O)[C@H]([C@H](O)CCN)NC(=O)[C@H]([C@H](O)[C@@H](O)c2ccc(O)cc2)NC(=O)[C@@H]2C[C@@H](O)CN2C(=O)[C@H]([C@@H](C)O)NC1=O` [caspofungin], for which the “cell leakage (propidium iodide uptake)” value is “caused rapid cell leakage”.

The same test, now with this note: arrested cells without carbon source (YP), 4 h.
`CC[C@H](C)C[C@H](C)CCCCCCCCC(=O)N[C@H]1C[C@@H](O)[C@@H](NCCN)NC(=O)[C@@H]2[C@@H](O)CCN2C(=O)[C@H]([C@H](O)CCN)NC(=O)[C@H]([C@H](O)[C@@H](O)c2ccc(O)cc2)NC(=O)[C@@H]2C[C@@H](O)CN2C(=O)[C@H]([C@@H](C)O)NC1=O` [caspofungin]: the “cell leakage (propidium iodide uptake)” value was “diminished”.

Another test has as its system yeast.
Assay: not given
The conditions noted are these: against yeast, literature values; cited from earlier work.
Turning to `O=C1C2CC=CCC2C(=O)N1SC(Cl)(Cl)Cl` (stereo not drawn) [captan], the IC50 (commonly the concentration at which inhibition is half-maximal) was 19 µM.

As to `O=S(=O)([O-])[O-].[Cu+2]` [copper sulfate], the IC50 is 2400 µM.

On to `CO/C=C(/C(=O)OC)c1ccccc1COc1cccc(C(F)(F)F)n1` [picoxystrobin], for which the 50% inhibitory concentration (IC50) was 308 µM.

As for `NC(=O)OC[C@H](O)[C@@H](O)[C@H](N)C(=O)N[C@H](C(=O)O)[C@H]1O[C@@H](n2cc(C(=O)O)c(=O)[nH]c2=O)[C@H](O)[C@@H]1O` [polyoxin D], the IC50 is 340 µM.

As to `CCCN(CCOc1c(Cl)cc(Cl)cc1Cl)C(=O)n1ccnc1` [prochloraz], the IC50 was 132 µM.

`c1ccc2[nH]c(-c3cscn3)nc2c1` [thiabendazole]: the 50% inhibitory concentration (IC50) was 607 µM.
